Results on 25 compounds are retold here after ChEMBL document CHEMBL5137060, “Glioblastoma: Current Status, Emerging Targets, and Recent Advances” (J Med Chem, 2022).

Broadly, the GI50 is the concentration at which growth is held to half of that of the control. One may read the IC50 as the concentration that gives 50% inhibition. The term inhibition denotes the drop in the measured response relative to a control, in per cent. One may read the Ki as the dissociation constant of the complex between target and ligand, obtained from inhibition or displacement. Usually solubility stands for how much of the substance goes into solution per volume.

The nature of data set [1]: Growth inhibition of human U373 cells. In kind it is functional. As to conditions: U373 MG.
A further data set relates to Hs 683. Put plainly: Growth inhibition of human Hs 683 cells. It counts as functional.
In a further data set the test system is U-87 MG. Put plainly: Cytotoxicity against human U87 cells. In kind it is functional, U-87MG ATCC.
Data set [2] concerns T98G. Put plainly: Cytotoxicity against human T98G cells. In kind it is functional.
The nature of data set [3]: Antiproliferative activity against human U-343MG cells assessed as inhibition of cell growth incubated for 72 hrs by MTS assay. In kind it is functional, cell-based. On the technique in general: Tetrazolium dyes change colour on reduction, which living cells bring about.
Data set [4] can be described thus: Antiproliferative activity against human ANGM-CSS cells assessed as inhibition of cell growth incubated for 72 hrs by MTS assay. It counts as functional, cell-based.
The subject of a further data set is C6. Put plainly: Anticancer activity against rat C6 cells. In kind it is functional, cell-based.
The nature of data set [5]: Cytotoxicity against human glial cells. It counts as toxicity, cell-based, Glial cell.
Data set [6] can be described thus: Cytotoxicity against patient derived xenografted D456 cells. It counts as functional, cell-based. The settings on record: Homo sapiens. In general terms: Xenograft models place foreign cells or tissue in a host animal.
The test system of another data set is Astrocyte. Put plainly: Cytotoxicity against NHA cells. It counts as functional, cell-based. The settings on record: Homo sapiens.
Data set [7] is described as follows: Antiproliferative activity against human U-87 MG cells incubated for 72 hrs by MTT assay. In kind it is functional, cell-based, U-87MG ATCC.
In data set [8] the test system is U-251. Put plainly: Cytotoxicity against human U-251 cells. In kind it is functional, cell-based.
The nature of data set [9]: Cytotoxicity against U87MG Human EGFR vIII cells. In kind it is functional, cell-based.
Another data set concerns LN-229. Put plainly: Cytotoxicity against human LN-229 cells assessed as cell viability measured after 48 hrs by countess-II FL Hemocytometer method. The settings on record: LN-229, 48 h. It counts as functional, cell-based.
The test system of another data set is SNB-19. Put plainly: Cytotoxicity against human SNB-19 cells assessed as cell viability measured after 48 hrs by countess-II FL Hemocytometer method. In kind it is functional, cell-based. As to conditions: SNB-19, 48 h.
In data set [10] the test system is U-251. Put plainly: Cytotoxicity against human U251N cells incubated for 24 to 72 hrs by fluorescence microscopic analysis. It counts as functional, cell-based.
In data set [11] the test system is U-251. Put plainly: Inhibition of cell migration of human U251N cells relative to control. It counts as functional.
Data set [12] concerns U-251. Put plainly: Cytotoxicity against human U-251MG cells assessed as cell viability. It counts as functional, cell-based.
Data set [13] concerns T98G. Put plainly: Cytotoxicity against human T98G cells assessed as cell viability. In kind it is functional, cell-based.
Data set [14] is described as follows: Cytotoxicity against human U-87G cells assessed as cell viability. It counts as functional, cell-based. As to conditions: U87G.
Data set [15] can be described thus: Plasma stability in mouse relative to control. In kind it is ADME, cell-free.
Data set [16] can be described thus: Plasma stability in monkey relative to control. In kind it is ADME, cell-free, Macaca mulatta. As to conditions: rhesus monkey.
The nature of data set [17]: Plasma stability in human relative to control. In kind it is ADME, cell-free.
Data set [18] is described as follows: Antiproliferative activity against human U-87 MG cells assessed as inhibitionof cell growth incubated for 24 to 72 hrs by MTT assay. In kind it is functional, cell-based, U-87MG ATCC.
For another data set, the system named is DBTRG-05MG. Put plainly: Cytotoxicity against human DBTRG cells. It counts as functional, cell-based.
A short description of data set [19]: Cytotoxicity against human U-87 MG cells. It counts as functional, cell-based, U-87MG ATCC.
The nature of data set [20]: Inhibition of cell migration of patient derived glioblastoma T78 spheroid cell culture treated at 10 uM for 24 hrs by propidium iodide staining method relative to control. In kind it is functional. The settings on record: Homo sapiens.
A short description of data set [21]: Inhibition of cell migration of patient derived glioblastoma T86 spheroid cell culture treated at 10 uM for 24 hrs by propidium iodide staining method relative to control. As to conditions: Homo sapiens. In kind it is functional.
Data set [22] is described as follows: Cytotoxicity against patient derived glioblastoma T111 cells. The settings on record: Homo sapiens, read-out: LC50 (the source's name). In kind it is functional.
The nature of data set [23]: Cytotoxicity against patient derived glioblastoma T78 cells. In kind it is functional. As to conditions: Homo sapiens, read-out: LC50 (the source's name).
The nature of data set [24]: Cytotoxicity against patient derived glioblastoma T86 cells. It counts as functional. As to conditions: Homo sapiens, read-out: LC50 (the source's name).
The target of another data set is Translocator protein (Homo sapiens, UniProt P30536). Put plainly: Binding affinity to TSPO (unknown origin).
Chain of Translocator protein (P30536 whole entry): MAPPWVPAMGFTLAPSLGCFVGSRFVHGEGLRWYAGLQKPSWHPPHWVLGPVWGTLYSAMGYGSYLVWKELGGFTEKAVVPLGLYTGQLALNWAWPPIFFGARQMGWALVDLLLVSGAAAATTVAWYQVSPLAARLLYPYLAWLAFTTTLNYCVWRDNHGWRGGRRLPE
Data set [25] is described as follows: Water solubility of the compound. In kind it is physicochemical.
Data set [26] has as its system U-251. Put plainly: Cytotoxicity against human U-251 cells assessed cell growth inhibition incubated for 48 hrs by CCK8 assay. In kind it is functional, cell-based. The settings on record: U-251, 48 h.
A short description of data set [27]: Cytotoxicity against human 091214 cells assessed cell growth inhibition incubated for 48 hrs by CCK8 assay. It counts as functional, cell-based. The settings on record: Homo sapiens, 091214, 48 h.

In the case of `O=C(c1ccccc1)c1[nH]c2[nH]cnc(=O)c2c1-c1ccccc1`, the GI50 was ≤ 0.01 µM in data set [1] and 0.01 µM with Hs 683.
Regarding `O=C(NO)C(c1ccccc1)c1c(-c2ccc3ccccc3c2)[nH]c2ccccc12` (stereo not drawn), the GI50 in the data set with U-87 MG was determined as 21.3 µM; in the data set on T98G [2], 1.9 µM.
`Cc1ccc(C(C(=O)NO)c2c(-c3ccc4ccccc4c3)[nH]c3ccccc23)cc1C` (stereo not drawn): the GI50 is 6.7 µM in the data set with U-87 MG and 7.5 µM in the data set with T98G [2].
As to `O=C1Nc2ccc(NC(=O)[C@H](NC(=O)c3cccn(Cc4ccc(F)c(F)c4)c3=O)c3ccccc3)cc2/C1=C/c1cnc[nH]1`, the results for the IC50 in [3] and in [4] were 0.0497 µM and 0.044 µM, respectively.
With `COC(=O)/C=C/c1ccc(/C=C/c2ccc(O)c(O)c2)cc1`, the IC50 in the data set on C6 is 5.4 µM; in data set [5], 142 µM.
As to `O=C1CC(c2ccc(-c3cc[nH]n3)s2)c2cc(N3CCNC3=O)ccc2N1` (stereo not drawn), the figures for the IC50 (in data set [6]; with Astrocyte) were 1.59 µM and 4.11 µM, respectively.
As for `O=C(NO)c1ccc(Cn2c(=O)n(CCc3ccccc3)c(=O)c3ccccc32)cc1`, the IC50 in [7] is 1.56 µM.
In the case of `CC(C)(C)OC(=O)N1CC[C@@]2(C(=O)Nc3ccccc32)[C@@H]1c1cccc(Nc2ccc(CO)c(S(C)(=O)=O)c2)c1`, the IC50 in the data set with U-251 [8] was 2.23 µM; in [9] it was 1.78 µM.
Take `CCOC(=O)/C=C/c1ccc(/C=C/c2ccc(O)c(O)c2)cc1`: the IC50 was 3.9 µM in the data set with C6 and 86 µM in data set [5].
For the compound `CC(C)(C)[Si](O[C@H]1[C@H](O)C[C@](O)(CO)C[C@H]1O[Si](c1ccccc1)(c1ccccc1)C(C)(C)C)(c1ccccc1)c1ccccc1`, the IC50 amounted to 10.7 µM in the data set on LN-229 and 28.2 µM in the data set on SNB-19.
As to `O=C1Nc2ccccc2C1Cc1ccc2cc[nH]c2c1` (stereo not drawn), the IC50 in data set [6] was found to be 21.3 µM; with Astrocyte, 24.7 µM.
For `NC(=O)CC(c1ccc(NC(=O)c2cccnc2)cc1)c1cccc2[nH]ccc12` (stereo not drawn), the IC50 in data set [6] turned out to be 8.65 µM; in the data set with Astrocyte, 27.3 µM.
The corresponding values for `O=C(Nc1ccc(Cl)c(C(F)(F)F)c1)c1ccc(Cl)cc1` are 2.96 µM and 14.2 µM.
In the data set on U-251 [10], `COc1cc(NC(C)CCCNC(=O)CCCC(=O)NO)c2ncccc2c1` (stereo not drawn) yielded an IC50 of 10 µM. Moreover, the “inhibition (INH)” value in the data set with U-251 [11] is given as 42%.
With `O=C(COc1ccc2c(=O)c(-c3ccccc3)coc2c1)N=c1[nH]c2ccccc2[nH]1`, the IC50 was determined as 6.58 µM in data set [6] and 4.77 µM with Astrocyte.
For `C[C@H]1O[C@@H](O[C@H]2CC[C@]3(C=O)[C@H]4CC[C@]5(C)[C@@H](C6CCC(=O)OC6)CC[C@]5(O)[C@@H]4CC[C@]3(O)C2)[C@H](O)[C@@H](O)[C@@H]1O` (stereo partly drawn), the IC50 stood at 70 µM in the data set with U-251 [12], 50 µM in the data set on T98G [13] and 40 µM in [14].
As for `CC(C)OC(=O)[C@H](CCC(=O)C=[N+]=[N-])NC(=O)[C@@H](N)Cc1c[nH]c2ccccc12`, the Stability in [15] stood at 0%; in data set [16] it was 10%; in data set [17], 61%.
Take `C[C@@H]1C2CCCC3CC[C@]4(C)OO[C@]32[C@H](O[C@@H]1OCCCN=C=S)O4` (stereo partly drawn): in data set [18], the IC50 turned out to be 7.41 µM.
Turning to `O=C1c2cc(-c3cccnc3)ncc2C(=O)c2c1c(-c1ccccn1)nn2-c1ccc(F)cc1F`, the IC50 (with U-251 [8]; in the data set with DBTRG-05MG; in [19]) was 2.5 µM throughout.
In the case of `CCn1c(-c2nonc2N)nc2cncc(CNC3CCNCC3)c21`, the inhibition at 10 µM worked out at 37.8% in data set [20] and 60.4% in [21]. The CC50 was determined as 112 µM in [22], 115 µM in [23] and 456 µM in data set [24].
As for `Cc1ccc(CN(C)C(=O)c2nc(-c3ccccc3Cl)c3ccccc3n2)cc1`, the affinity at Translocator protein corresponds to a Ki of 0.00399 µM.
As to `CCOC(=O)[C@H](CCC(=O)C=[N+]=N)NC(=O)OC(C)OC(=O)C(C)(C)C` (stereo partly drawn), the solubility in data set [25] was > 25 mg/mL.
`CCOC(=O)[C@H](CCC(=O)C=[N+]=[N-])NC(=O)[C@@H](N)Cc1c[nH]c2ccccc12`: the Stability in [15] was determined as 0%; in [16] it was 4%; in data set [17] it was 12%.
As to `O=C1Nc2ccccc2C12CCN[C@@H]2c1ccccc1` (stereo partly drawn), the IC50 in data set [6] worked out at 41.1 µM; in the data set with Astrocyte, 101 µM.
Take `C[C@@H]1O[C@@H](O[C@H]2CC[C@H](O[C@H]3[C@H](O)C[C@H](c4ccc5c(c4O)C(=O)c4ccc(C[C@](C)(CC(=O)O)O[C@H]6CC[C@H](O[C@H]7CCC(=O)[C@H](C)O7)[C@H](C)O6)c(O)c4C5=O)O[C@@H]3C)O[C@H]2C)CCC1=O` [GRINCAMYCIN B]: the IC50 worked out at 2.04 µM in the data set on U-251 [26] and 3.11 µM in data set [27].
